# Reference: ChEMBL document CHEMBL5120906, “Oxalierpenes A and B, Unusual Indole-Diterpenoid Derivatives with Antiviral Activity from a Marine-Derived Strain of the Fungus Penicillium oxalicum” (J Nat Prod, 2022)
# How the values were obtained:
# [1] = tested on: Respiratory syncytial virus; experiment: Antiviral activity against Respiratory syncytial virus infected in human HEp-2 cells assessed as inhibition of virus-induced cytopathic effect by CPE inhibition assay; assay type: functional, organism-based
# [2] = tested on: Influenza A virus; experiment: Antiviral activity against Influenza A virus A/WSN/33(H1N1) infected in dog MDCK cells assessed as inhibition of virus-induced cytopathic effect by CPE inhibition assay; assay type: functional, organism-based
# [3] = Cytotoxicity against dog MDCK cells assessed as reduction in cell viability; assay type: toxicity, cell-based, Canis lupus familiaris
# [4] = Therapeutic index, ratio of CC50 for Cytotoxicity against human HEp-2 cells to IC50 for Antiviral activity against Respiratory syncytial virus infected in human HEp-2 cells; assay type: toxicity, cell-based; details: read-out: Ratio CC50/IC50
# [5] = Therapeutic index, ratio of CC50 for Cytotoxicity against dog MDCK cells to IC50 for Antiviral activity against Influenza A virus A/WSN/33(H1N1) infected in dog MDCK cells; assay type: toxicity, cell-based; details: read-out: Ratio CC50/IC50
# [6] = Cytotoxicity against human HEp-2 cells assessed as reduction in cell viability; assay type: toxicity, cell-based
SMILES,IC50 [1] [µM],IC50 [2] [µM],CC50 [3] [µM],selectivity ratio [4],selectivity ratio [5],CC50 [6] [µM]
CC1(C)C=C2C(=Cc3cc4c5c([nH]c4cc32)[C@@]2(C)[C@@H](CCC3=C([C@@H]4OC(C)(C)[C@@H](O)C4=O)C(=O)CC[C@@]32C)C5)C(C)(C)O1,6.7,9.4,27,4.6,2.8,31
CC1(C)C=C2C(=Cc3cc4c5c([nH]c4cc32)[C@@]2(C)[C@@H](CC[C@@]34O[C@@]6(O)[C@H](O)C(C)(C)O[C@H]6[C@@H]3C(=O)CC[C@]24C)C5)C(C)(C)O1,2.8,3.7,13,5.5,3.5,15
NC(=O)c1nc(F)c[nH]c1=O [FAVIPIRAVIR],–,–,> 1000,–,> 28,–
NC(=O)c1ncn([C@@H]2O[C@H](CO)[C@@H](O)[C@H]2O)n1 [RIBAVIRIN],19,–,–,> 54,–,> 1000
